Measurements taken from US12661353B2, “SPT5 inhibitors and uses thereof” (Yeda Research and Development Co. Ltd., priority 2020, dated 2026).
Entries after “also recorded” stand apart in the source; their conditions may differ. Read-outs that look alike come from different tables or passages of the source.

Legend:
[1] = test system: pro-inflammatory genes A20, CCL20, IL6, IL8, CXCL2, JUNB and IEX1; experiment: mRNA levels of pro-inflammatory genes under TNFα-induced conditions, HeLa, RT-qPCR; format: cell-based, human; conditions: for Down-regulating transcription of pro-inflammatory genes under TNFα induced conditions (i.e. inhibiting transcription elongation of pro-inflammatory genes induced by Spt5): HeLa cells, SPI 1 hour then TNFα 1 hour; for effect on TNFα-induced levels of pro-inflammatory genes, in words: HeLa, SPI (50 μM or less) 1 hour then TNFα 1 hour
Experimental: (§1) Cell culture—HEK293T, HeLa, MCF7, Jurkat and mouse embryonic fibroblasts (MEFs) cells were grown and maintained in Dulbecco's modified Eagle's medium supplemented with 10% fetal calf serum (Gibco) and 1% penicillin-streptomycin. To avoid NF-κB activity, HeLa cells were kept from reaching confluence and re-plated no more than 10 times following initial thawing. To induce NF-κB activity, cells were treated with […] recombinant human TNF-α (Peprotech) for the indicated times. STHdh Q111 and STHdh Q7 striatal cell lines (Coriell Institute for Medical Research) were grown in Dulbecco's modified Eagle's medium supplemented with 10% fetal calf serum (Gibco), 1% penicillin-streptomycin and 0.4 mg/ml G418 at 33° C. The cells were re-plated no more than 5-6 times, as recommended.
(§2) RNA analysis—Total RNA was extracted using Tri-reagent (Bio-Lab Chemicals) and Direct-Zol™ RNA MiniPrep kit (Zymo Research). Following, cDNA was synthesized from […] of total RNA using a High-Capacity cDNA Reverse Transcription Kit (ABI, Thermo Fisher Scientific). cDNA samples were analyzed by quantitative PCR (qPCR) in a ViiA 7 Real-Time PCR System using Fast qPCRBIO SYBR Green Mix (PCR Biosystems).
In the next step, the effect of the identified SPIs on expression of the selected genes following NF-κB activation was analyzed. Specifically, Hela cells were pre-incubated with DMSO or SPI (50 μM or less) for 1 hour followed by treatment with TNFα for an additional 1 hour.

[2] = test system: mutant (Q111) Htt; experiment: Htt mRNA levels in Q111 striatal cells, qPCR; for Down-regulating transcription of Mutant Htt (i.e. inhibiting transcription elongation of mutant Htt gene induced by Spt5): key: + represent a statistically significant effect; format: cell-based, mouse; conditions: for Down-regulating transcription of Mutant Htt (i.e. inhibiting transcription elongation of mutant Htt gene induced by Spt5): Q111 striatal cells; for Down-regulating transcription of Mutant Htt (i.e. inhibiting transcription elongation of mutant Htt gene induced by Spt5) / effect on mutant (Q111) Htt mRNA expression, in words: 48 hours
Experimental: as §1
Huntington's disease (HD) is an inherited genetic disorder caused by expansion trinucleotide CAG repeats (36 and higher) encoding glutamine (Q) in the huntingtin (Htt) gene. Expression of the mutant gene in neurons of the striatum and the frontal cortex leads to degeneration of neuronal cells that control body movements, emotions and intellect. […] To examine the potential effect of SPIs in this context, striatal cell lines established from wild type (Q7) or from mutant (Q111) Htt knock-in mice were used. In these cell lines the coding region of the first exon of the mouse Htt gene was replaced with the same region of human wild type (Q7) or mutant (Q111) Htt, as schematically shown in FIG. 6A. The two cell lines were treated for 48 hours with the identified SPIs and following the levels of Htt mRNA were determined.
The compounds were tested as described in Example 4 hereinabove. In brief, Q111 (or Q7, where indicated) expressing Striatal cells were treated with the tested compound at the indicated concentrations for 48 hours. Then, RNA was extracted and levels of Htt mRNA were determined by qRT-PCR and normalized to β-actin. The data was analysed using GraphPad Prism software.

[3] = test system: pro-inflammatory genes A20, CCL20, IL6, IL8, CXCL2, JUNB and IEX1; experiment: mRNA levels of pro-inflammatory genes under basal conditions, HeLa, RT-qPCR; format: cell-based, human; conditions: HeLa cells, 2 hours, 50 μM SPI
Experimental: as §1, §2
Thus, a subset of Spt5-responsive pro-inflammatory genes from the aforementioned studies and from others (Aida et al., 2006; Fujita et al., 2009), namely A20, CCL20, IL6, IL8, CXCL2, JUNB and IEX1, were selected and the effect of the identified SPIs on their expression under basal conditions and in response to NF-κB activation was tested (FIGS. 2A-C and 3A-C). Specifically, for analyzing expression under basal conditions, Hela cells were treated with vehicle (DMSO) or SPI for 2 hours and following RNA was extracted and analyzed by RT-qPCR.

[4] = test system: Spt5 activities; experiment: Combined effects on the various Spt5 activities (summary of Examples 1-4); format: cell-based

Compound	Down-regulating transcription of pro-inflammatory genes under TNFα induced conditions (i.e. inhibiting transcription elongation of pro-inflammatory genes induced by Spt5) [1]	Down-regulating transcription of Mutant Htt (i.e. inhibiting transcription elongation of mutant Htt gene induced by Spt5) [2]	Up-regulation of pro-inflammatory genes under basal conditions (i.e. inhibiting proximal promoter pausing of pro-inflammatory genes induced by Spt5) [3]	classification by effect on the various Spt5 activities, in words [4]	effect on mutant (Q111) Htt mRNA expression, in words [2]	effect on TNFα-induced levels of pro-inflammatory genes, in words [1]	classification by effect on the various Spt5 activities, in words ([4]; listed as SPJ-09)	effective concentration on mutant Htt lower than the concentration needed to inhibit expression of the pro-inflammatory genes [2]	classification by effect on the various Spt5 activities, in words ([4]; listed as SPJ-85)
O=C(/C=C/c1ccc(O)cc1)CC(=O)/C=C/c1ccc(O)cc1 [SPI-29]	+++ (+++ represent >80% inhibition)	+	++ (++ >3)	affect all the tested Spt5 activities					
O=C(O)c1ccc(C=C2CSc3c(F)cccc3C2=O)cc1 [SPI-46]	+++ (+++ represent >80% inhibition)		+ (+ >1.6)	affected the basal and the TNFα-induced pro-inflammatory gene transcription	did not affect mutant Htt expression				
CSc1ccccc1NS(=O)(=O)c1ccc(-n2ncc(Cl)c(Cl)c2=O)cc1 [SPI-1477]					efficacy in selectively inhibiting transcription of Htt gene				
O=C(O)c1ccc(C=C2CSc3ccc(F)cc3C2=O)cc1 [SPI-68]	++ (++ >65%)	+	+ (+ >1.6)			affected mainly the genes that were strongly induced by the TNFα treatment			
COc1ccc(C2=NCC(CSc3nc4cc(Cl)ccc4o3)S2)cc1 (centres unmarked) [SPI-0324]					efficacy in selectively inhibiting transcription of Htt gene				
O=c1oc2cc(O)ccc2s1 [SPI-09]		+		little or no effect on basal and induced pro-inflammatory gene expression	diminished mutant Htt expression		a single activity as SPI inhibitors towards inhibiting transcription of Htt gene		
CCc1ccccc1NS(=O)(=O)c1ccc(-n2ncc(Cl)c(Cl)c2=O)cc1 [SPI-31]	+++ (+++ represent >80% inhibition)	+		inhibited mainly the positive activity of Spt5 with little or no effect on proximal promoter pausing; also recorded: a single activity as SPI inhibitors towards inhibiting transcription of Htt gene	efficacy in selectively inhibiting transcription of Htt gene			about 15 fold	
CN(C)c1ccc(C2NCC(CSc3nc4ccccc4s3)O2)cc1 (centres unmarked) [SPI-85]		+		little or no effect on basal and induced pro-inflammatory gene expression	diminished mutant Htt expression				a single activity as SPI inhibitors towards inhibiting transcription of Htt gene
CCN(CC)CCOc1ccc(C(=C(Cl)c2ccccc2)c2ccccc2)cc1 [SPI-42]	++ (++ >65%)		+ (+ >1.6)	affected the basal and the TNFα-induced pro-inflammatory gene transcription	did not affect mutant Htt expression	affected mainly the genes that were strongly induced by the TNFα treatment			
Nc1ccc2ncnc(NCCc3ccc(Oc4ccccc4)cc3)c2c1 [SPI-74]	++ (++ >65%)	+	+ (+ >1.6)	affect all the tested Spt5 activities		affected mainly the genes that were strongly induced by the TNFα treatment			
Cc1ccnc(SC=CC(=O)c2ccccc2)n1 [SPI-57]	+++ (+++ represent >80% inhibition)		+ (+ >1.6)	affected the basal and the TNFα-induced pro-inflammatory gene transcription	did not affect mutant Htt expression				
O=C1C(=Cc2cccc(O)c2)CSCC1=Cc1cccc(O)c1 [SPI-157]	+++ (+++ represent >80% inhibition)		++ (++ >3)	affected the basal and the TNFα-induced pro-inflammatory gene transcription	did not affect mutant Htt expression				
Cn1cc(-c2ccncc2)c(-c2ccc(OCc3ccc4ccccc4n3)cc2)n1 [SPI-95]	++ (++ >65%)		+ (+ >1.6)	affected the basal and the TNFα-induced pro-inflammatory gene transcription	did not affect mutant Htt expression	affected mainly the genes that were strongly induced by the TNFα treatment			
CCc1ccccc1NS(=O)(=O)c1ccc(-n2ncccc2=O)cc1 [SPI-4516K, N-(2-ethylphenyl)-4-(6-oxopyridazin-1(6H)-yl)benzenesulfonamide]					efficacy in selectively inhibiting transcription of Htt gene				
N#CC(C#N)=CC=C(Sc1ncc(C(F)(F)F)cc1Cl)c1ccc(Cl)cc1 [SPI-16]	+++ (+++ represent >80% inhibition)		++ (++ >3)	affected the basal and the TNFα-induced pro-inflammatory gene transcription	did not affect mutant Htt expression				
OCc1ccc(-c2ccc(-c3cccs3)s2)s1 [SPI-8108]					efficacy in selectively inhibiting transcription of Htt gene				
OCc1ccc(-c2ccc(-c3ccc(CO)s3)o2)s1 [SPI-48]		+		a single activity as SPI inhibitors towards inhibiting transcription of Htt gene					
CN(Cc1cnn(Cc2ccccc2)c1)c1ccc2nnc(-c3ccccc3)n2n1 [SPI-17]	+++ (+++ represent >80% inhibition)		+++ (+++ represent effect >10)	affected the basal and the TNFα-induced pro-inflammatory gene transcription	did not affect mutant Htt expression				
